Results reported in patent US20090023704A1, “Novel Compounds 737” (ASTRAZENECA AB, priority 2007, published 2009).

target: T1, GABAB receptor (GABABR1a/GABABR2 heterodimer) (Homo sapiens, UniProt O75899+Q9UBS5); test: [35S]-GTPγS binding assay, potency of PAM (GABA dose-response curves with and without test compound); assay type: biochemical; conditions: potency of the positive allosteric modulator; GABA dose-response in presence of test compound
T1 construct: expressed in transfected cells
From the text: GABABR1a and GABABR2 were cloned from human brain cDNA and subcloned into pCI-Neo (Promega) and pALTER-1 (Promega), respectively. A GABABR1a-Gαqi5 fusion protein expression vector was constructed using the pCI-Neo-GABABR1a cDNA plasmid and pLEC1-Gαqi5 (Molecular Devices, CA). In order to make the Gαqi5 pertussis toxin insensitive, Cys356 was mutated to Gly using standard PCR methodology with the primers 5′-[…]-3′ (forward) and 5′-GCGGCCG […]-3′ (reverse). The Gαqi5mut cDNA was ligated into the BamHI and NotI sites of pcDNA3.0 (Invitrogen). The GABAB R1a coding sequence was amplified by PCR from pCI-Neo-GABABR1a using the primers, 5′-[…]-3′ (forward) and 5′-[…]-3′ (reverse) and subcloned into the BamHI site of pcDNA3.0-Gαqi5mut.
For generation of a cell line expressing the GABABR1a/GABABR2 heterodimer, GABABR1a plasmid DNA (4 μg) GABABR2 plasmid DNA (4 μg) and lipofectamine (24 μl) were mixed in 5 ml OptiMEM and incubated for 45 minutes at room temperature. The cells were exposed to the transfection medium for 5 hours, which then was replaced with culture medium. The cells were cultured for an additional 10 days before selection agents (300 μg/ml hygromycin and 400 μg/ml geneticin) were added. Twenty-four days after transfection, single cell sorting into 96-well plates by flow cytometry was performed using a FACS Vantage SE (Becton Dickinson, Palo Alto, Calif.). After expansion, the GABAB receptor functional response was tested using the FLIPR assay described below. The clone with the highest functional response was collected, expanded and then subcloned by single cell sorting. The clonal cell line with the highest peak response in the FLIPR was used in the present study.
For generation of a stable cell line expressing GABABR1a-Gαqi5 fusion protein and GABABR2, GABABR1a-Gαqi5mut plasmid DNA (8 μg) GABABR2 plasmid DNA (8 μg) and lipofectamine (24 μl) were mixed in 5 ml OptiMEM and incubated for 45 minutes at room temperature. The cells were exposed to the transfection medium for 5 hours, which then was replaced with culture medium. After forty-eight hours, the cells were detached and seeded in 6 well plates (2000 cells/well) and grown in culture medium supplemented with geneticin (400 μg/ml) and zeocin (250 μg/ml). After 4 days, cells from single colonies were collected and transferred to a 24-well plate. After 10 days, the cell clones were seeded in T-25 flasks and grown for another 16 days before they were tested for GABAB receptor mediated functional response. […] The clonal cell line that gave the highest peak response in the FLIPR was used in the present study.
[^35S]-GTPγS binding assays were performed at 30° C. for 45 min in membrane buffer (100 mM NaCl, 5 mM MgCl2, 1 mM EDTA, 50 mM HEPES, pH 7.4) containing 0.025 μg/μl of membrane protein (prepared from the cell lines described above) with 0.01% bovine serum albumin (fatty acid free), 10 μM GDP, 10 μM DTT and 0.53 nM [^35S]-GTPγS (Amersham-Pharmacia Biotech) in a final volume of 200 μl. Non-specific binding was determined in the presence of 20 μM GTPγS. The reaction was started by the addition of GABA at concentration between 1 mM and 0.1 nM in the presence or absence of the required concentration of PAM. The reaction was terminated by addition of ice-cold wash buffer (50 mM Tris-HCl, 5 mM MgCl2, 50 mM NaCl, pH 7.4) followed by rapid filtration under vacuum through Printed Filtermat A glass fiber filters (Wallac) (0.05% PEI treated) using a Micro 96 Harvester (Skatron Instruments). The filters were dried for 30 min at 50° C., then a paraffin scintillant pad was melted onto the filters and the bound radioactivity was determined using a 1450 Microbeta Trilux (Wallac) scintillation counter.
GABA dose-response curves in the presence and absence of test compounds were constructed using the 4-parameter logistic equation, y=ymax+((ymin−ymax)/1+(x/C)^D), where C=EC50 and D=slope factor.

T1 sequence (Q9UBS5 15-961 limits assumed): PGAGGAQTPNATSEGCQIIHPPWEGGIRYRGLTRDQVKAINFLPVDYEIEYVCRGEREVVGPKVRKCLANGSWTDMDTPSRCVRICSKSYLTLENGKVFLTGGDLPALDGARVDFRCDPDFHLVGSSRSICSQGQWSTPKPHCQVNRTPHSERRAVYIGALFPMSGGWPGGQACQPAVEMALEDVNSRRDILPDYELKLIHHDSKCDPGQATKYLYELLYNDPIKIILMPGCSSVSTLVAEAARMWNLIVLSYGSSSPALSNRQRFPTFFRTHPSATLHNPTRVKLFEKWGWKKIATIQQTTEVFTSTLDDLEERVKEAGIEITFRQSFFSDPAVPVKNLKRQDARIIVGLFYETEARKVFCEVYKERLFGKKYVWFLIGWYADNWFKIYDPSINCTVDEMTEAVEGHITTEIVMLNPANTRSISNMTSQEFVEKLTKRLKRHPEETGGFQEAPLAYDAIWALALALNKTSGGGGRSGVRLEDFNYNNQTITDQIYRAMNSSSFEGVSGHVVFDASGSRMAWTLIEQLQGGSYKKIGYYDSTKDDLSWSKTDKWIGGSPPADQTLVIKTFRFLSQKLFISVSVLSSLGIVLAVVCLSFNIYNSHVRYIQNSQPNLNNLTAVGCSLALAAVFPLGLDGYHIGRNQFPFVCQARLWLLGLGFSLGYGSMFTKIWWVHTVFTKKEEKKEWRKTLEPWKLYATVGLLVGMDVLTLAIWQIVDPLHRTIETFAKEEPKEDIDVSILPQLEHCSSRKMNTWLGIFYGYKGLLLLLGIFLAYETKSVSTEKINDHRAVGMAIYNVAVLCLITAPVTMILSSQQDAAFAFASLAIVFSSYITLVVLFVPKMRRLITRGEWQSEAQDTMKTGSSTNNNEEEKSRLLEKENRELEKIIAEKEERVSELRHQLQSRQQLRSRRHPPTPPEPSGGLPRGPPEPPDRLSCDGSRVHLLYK
T1 sequence (O75899 42-941): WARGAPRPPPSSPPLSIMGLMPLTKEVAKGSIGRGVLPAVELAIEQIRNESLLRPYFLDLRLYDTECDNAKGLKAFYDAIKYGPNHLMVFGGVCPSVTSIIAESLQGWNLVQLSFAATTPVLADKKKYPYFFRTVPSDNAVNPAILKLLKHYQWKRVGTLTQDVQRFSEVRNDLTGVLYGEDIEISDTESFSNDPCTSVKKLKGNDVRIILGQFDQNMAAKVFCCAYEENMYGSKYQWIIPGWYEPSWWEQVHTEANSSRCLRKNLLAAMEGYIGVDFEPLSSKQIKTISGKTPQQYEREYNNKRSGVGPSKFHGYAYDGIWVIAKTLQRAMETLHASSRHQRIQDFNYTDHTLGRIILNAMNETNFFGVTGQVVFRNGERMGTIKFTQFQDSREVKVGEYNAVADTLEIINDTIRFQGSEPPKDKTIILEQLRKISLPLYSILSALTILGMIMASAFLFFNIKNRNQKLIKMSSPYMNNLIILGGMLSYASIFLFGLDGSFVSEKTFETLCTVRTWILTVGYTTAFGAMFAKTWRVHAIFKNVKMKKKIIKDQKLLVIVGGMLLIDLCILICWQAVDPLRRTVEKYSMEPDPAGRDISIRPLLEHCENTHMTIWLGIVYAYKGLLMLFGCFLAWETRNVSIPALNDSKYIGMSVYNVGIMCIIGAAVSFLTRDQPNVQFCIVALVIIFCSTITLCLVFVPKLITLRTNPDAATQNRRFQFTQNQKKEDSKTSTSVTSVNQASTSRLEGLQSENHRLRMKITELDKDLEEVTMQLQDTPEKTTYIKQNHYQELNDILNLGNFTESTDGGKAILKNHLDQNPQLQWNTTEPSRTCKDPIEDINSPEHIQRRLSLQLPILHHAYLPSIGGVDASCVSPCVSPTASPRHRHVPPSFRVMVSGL

| Compound | EC50 [µM] |
| --- | --- |
| CCc1nc2c(c(=O)n(Cc3ccc(Cl)cc3)c(=O)n2Cc2ccccn2)n1C [Example 15, 1-(4-Chlorobenzyl)-8-ethyl-7-methyl-3-(pyridin-2-ylmethyl)-3,7-dihydro-1H-purine-2,6-dione] | 7.8 |
| CCc1nc2c(c(=O)n(Cc3ccc(Cl)cc3)c(=O)n2CC(C)C)n1C [Example 8, 1-(4-Chlorobenzyl)-8-ethyl-3-isobutyl-7-methyl-3,7-dihydro-1H-purine-2,6-dione] | 2.7 |
| CCc1nc2c(c(=O)n(Cc3ccc(Cl)cc3)c(=O)n2Cc2cccnc2)n1C [Example 18, 1-(4-Chlorobenzyl)-8-ethyl-7-methyl-3-(pyridin-3-ylmethyl)-3,7-dihydro-1H-purine-2,6-dione] | 3.3 |
| CCc1nc2c(c(=O)n(Cc3ccc(Cl)cc3)c(=O)n2C[C@H]2CCC(=O)N2)n1C [Example 6, 1-(4-Chlorobenzyl)-8-ethyl-7-methyl-3-{[(2R)-5-oxopyrrolidin-2-yl]methyl}-3,7-dihydro-1H-purine-2,6-dione] | 16.4 |
| CCc1nc2c(c(=O)n(Cc3ccc(Cl)cc3)c(=O)n2CCCS(=O)(=O)C(C)(C)C)n1C [Example 34, 3-[3-(tert-butylsulfonyl)propyl]-1-(4-chlorobenzyl)-8-ethyl-7-methyl-3,7-dihydro-1H-purine-2,6-dione] | 11.3 |
| CCc1nc2c(c(=O)n(Cc3ccc(Cl)cc3)c(=O)n2Cc2ccccc2)n1C [Example 1, 3-benzyl-1-(4-chlorobenzyl)-8-ethyl-7-methyl-3,7-dihydro-1H-purine-2,6-dione] | 6.33 |
| CCc1nc2c(c(=O)n(Cc3ccc(Cl)cc3)c(=O)n2Cc2cc(C)on2)n1C [Example 16, 1-(4-Chlorobenzyl)-8-ethyl-7-methyl-3-[(5-methylisoxazol-3-yl)methyl]-3,7-dihydro-1H-purine-2,6-dione] | 6.8 |
| CCc1nc2c(c(=O)n(Cc3ccc(Cl)cc3)c(=O)n2C[C@@H]2CCC(=O)N2)n1C [Example 10, 1-(4-Chlorobenzyl)-8-ethyl-7-methyl-3-{[(2S)-5-oxopyrrolidin-2-yl]methyl}-3,7-dihydro-1H-purine-2,6-dione] | 14.6 |
| C=CCn1c(=O)n(Cc2ccc(Cl)cc2)c(=O)c2c1nc(CC)n2C [Example 12, 3-Allyl-1-(4-chlorobenzyl)-8-ethyl-7-methyl-3,7-dihydro-1H-purine-2,6-dione] | 6 |
| CCC(=O)Cn1c(=O)n(Cc2ccc(Cl)cc2)c(=O)c2c1nc(CC)n2C [Example 33, 1-(4-chlorobenzyl)-8-ethyl-7-methyl-3-(2-oxobutyl)-3,7-dihydro-1H-purine-2,6-dione] | 3.7 |
| CCc1nc2c(c(=O)n(Cc3ccc(Cl)cc3)c(=O)n2Cc2ccc(C(F)(F)F)cc2)n1C [Example 31, 1-(4-chlorobenzyl)-8-ethyl-7-methyl-3-[4-(trifluoromethyl)benzyl]-3,7-dihydro-1H-purine-2,6-dione] | 5.5 |
| CCc1nc2c(c(=O)n(Cc3ccc(Cl)cc3)c(=O)n2Cc2ccc(S(C)(=O)=O)cc2)n1C [Example 22, 1-(4-chlorobenzyl)-8-ethyl-7-methyl-3-[4-(methylsulfonyl)benzyl]-3,7-dihydro-1H-purine-2,6-dione] | 2.5 |

More lines, now with the values ahead:

| EC50 [µM] | Compound |
| --- | --- |
| 15.1 | CCCn1c(=O)n(Cc2cccc(Cl)c2)c(=O)c2c1nc(CC)n2C [Example 67, 1-(3-Chlorobenzyl)-8-ethyl-7-methyl-3-propyl-3,7-dihydro-1H-purine-2,6-dione] |
| 12.5 | CCc1nc2c(c(=O)n(Cc3ccc(Cl)c(Cl)c3)c(=O)n2CCCCC2CCCCC2)n1C [Example 44, 3-(4-Cyclohexylbutyl)-1-(3,4-dichlorobenzyl)-8-ethyl-7-methyl-3,7-dihydro-1H-purine-2,6-dione] |
| 3.7 | CCCn1c(=O)n(Cc2ccc(Cl)cc2)c(=O)c2c1nc(N1CCSCC1)n2C [Example 88, 1-(4-chlorobenzyl)-7-methyl-3-propyl-8-thiomorpholin-4-yl-3,7-dihydro-1H-purine-2,6-dione] |
| 5.1 | CCCn1c(=O)n(Cc2ccc(Cl)cc2)c(=O)c2c1nc(N1CCC(OC)CC1)n2C [Example 84, 1-(4-chlorobenzyl)-8-(4-methoxypiperidin-1-yl)-7-methyl-3-propyl-3,7-dihydro-1H-purine-2,6-dione] |
| 2.7 | CCCn1c(=O)n(Cc2ccc3ccccc3c2)c(=O)c2c1nc(CC)n2C [Example 58, 8-Ethyl-7-methyl-1-(2-naphthylmethyl)-3-propyl-3,7-dihydro-1H-purine-2,6-dione] |
| 11.3 | CCc1nc2c(c(=O)n(Cc3ccc(Cl)c(Cl)c3)c(=O)n2CC(=O)[C@]23C[C@@H]4C[C@H](C[C@@H](C4)C2)C3)n1C [Example 42, 3-{2-[(3S,5S,7S)-Adamantan-1-yl]-2-oxoethyl}-1-(3,4-dichlorobenzyl)-8-ethyl-7-methyl-3,7-dihydro-1H-purine-2,6-dione] |
| 1.8 | CCc1nc2c(c(=O)n(Cc3ccc(Cl)cc3)c(=O)n2Cc2scc(S(=O)(=O)C(C)C)c2Cl)n1C [Example 39, 1-(4-chlorobenzyl)-3-{[3-chloro-4-(isopropylsulfonyl)-2-thienyl]methyl}-8-ethyl-7-methyl-3,7-dihydro-1H-purine-2,6-dione] |
| 8.93 | CCCn1c(=O)n(Cc2ccc(Cl)cc2)c(=O)c2c1nc(CC)n2CC [Example 72, 1-(4-Chlorobenzyl)-7,8-diethyl-3-propyl-3,7-dihydro-H-purine-2,6-dione] |
| 6.1 | CCCn1c(=O)n(Cc2ccc(C(C)C)cc2)c(=O)c2c1nc(CC)n2C [Example 70, 8-Ethyl-1-(4-isopropylbenzyl)-7-methyl-3-propyl-3,7-dihydro-1H-purine-2,6-dione] |
| 16.9 | CCc1nc2c(c(=O)n(Cc3ccc(Cl)cc3)c(=O)n2CCCN2CCCC2)n1C [Example 46, 1-(4-chlorobenzyl)-8-ethyl-7-methyl-3-(3-pyrrolidin-1-ylpropyl)-3,7-dihydro-1H-purine-2,6-dione] |
| 4.2 | CCCn1c(=O)n(Cc2ccc(Br)cc2)c(=O)c2c1nc(CC)n2C [Example 61, 1-(4-Bromobenzyl)-8-ethyl-7-methyl-3-propyl-3,7-dihydro-1H-purine-2,6-dione] |
| 15.7 | CCCn1c(=O)n(Cc2ccc(C(=O)c3ccccc3)cc2)c(=O)c2c1nc(CC)n2C [Example 68, 1-(4-Benzoylbenzyl)-8-ethyl-7-methyl-3-propyl-3,7-dihydro-1H-purine-2,6-dione] |
| 4.5 | CCCn1c(=O)n(Cc2ccc(Cl)cc2)c(=O)c2c1nc(Br)n2C [Example 95, 8-bromo-1-(4-chlorobenzyl)-7-methyl-3-propyl-3,7-dihydro-1H-purine-2,6-dione] |
| 2.6 | CCCn1c(=O)n(Cc2ccc(Cl)c(Cl)c2)c(=O)c2c1nc(CC)n2C [Example 57, 1-(3,4-Dichlorobenzyl)-8-ethyl-7-methyl-3-propyl-3,7-dihydro-1H-purine-2,6-dione] |
| 5.7 | CCCn1c(=O)n(Cc2ccc(C(F)(F)F)cc2)c(=O)c2c1nc(CC)n2C [Example 62, 8-Ethyl-7-methyl-3-propyl-1-[4-(trifluoromethyl)benzyl]-3,7-dihydro-1H-purine-2,6-dione] |
| 0.6 | CCc1nc2c(c(=O)n(Cc3ccc(Cl)c(Cl)c3)c(=O)n2CC(=O)C(C)(C)C)n1C [Example 40, 1-(3,4-Dichlorobenzyl)-3-(3,3-dimethyl-2-oxobutyl)-8-ethyl-7-methyl-3,7-dihydro-1H-purine-2,6-dione] |
